We go through 28 compounds from ChEMBL document CHEMBL5214978, “Identification of 1,4-Benzodiazepine-2,5-dione Derivatives as Potential Protein Synthesis Inhibitors with Highly Potent Anticancer Activity” (J Med Chem, 2022).

Format in all cases: functional
The subject of one test is A549. Description: Anticancer activity against human A549 cells assessed as cell growth inhibition measured after 48 hrs by SRB assay. A general note: Sulforhodamine B stains cellular protein and so reports cell mass.
In another test the test system is HCT-116. Description: Anticancer activity against human HCT-116 cells assessed as cell growth inhibition measured after 48 hrs by SRB assay.
The subject of a further test is SF-295. Description: Anticancer activity against human SF-295 cells assessed as cell growth inhibition measured after 48 hrs by SRB assay.
A further test has as its system LOX IMVI. In words: Anticancer activity against human LOX IMVI cells assessed as cell growth inhibition measured after 48 hrs by SRB assay.
The test system of another test is 786-0. Description: Anticancer activity against human 786-0 cells assessed as cell growth inhibition measured after 48 hrs by SRB assay.
The subject of test [1] is Panel NCI-60 (60 carcinoma cell lines). In words: Anticancer activity against human Panel NCI-60 (60 carcinoma cell lines) line assessed as cell growth inhibition measured after 48 hrs by SRB assay.

On to `CCN(CC)C(=O)C[C@@H]1NC(=O)c2cc(Oc3cc(C)cc(C)c3)c(NC(=O)c3cc(OC)c(OC)c(OC)c3)cc2N(C)C1=O`, for which the 50% growth inhibitory concentration (GI50) (in the test on A549; with HCT-116; in the test on SF-295; with LOX IMVI; with 786-0; in test [1]) was over 50000 nM each time.
In the case of `COC(=O)C[C@@H]1NC(=O)c2cc(OC)c(NC(=O)c3cc(OC)c(OC)c(OC)c3)cc2NC1=O`, the 50% growth inhibitory concentration (GI50) (with A549; in the test on HCT-116; with SF-295; in the test with LOX IMVI; with 786-0; in test [1]) was over 50000 nM each time.
As for `COC(=O)C[C@@H]1NC(=O)c2cc(Oc3cc(C)ccc3C)c(NC(=O)c3cc(OC)c(OC)c(OC)c3)cc2NC1=O`, the GI50 (usually the concentration at which growth is held to half of that of the control) in the test with A549 is 1170 nM; with HCT-116 it was 1340 nM; with SF-295 it was 960 nM; in the test on LOX IMVI, 1360 nM; in the test with 786-0, 1280 nM; in test [1] it was 1350 nM.
On to `COC(=O)C[C@@H]1NC(=O)c2cc(Oc3ccc(C)c(C)c3)c(NC(=O)c3cc(OC)c(OC)c(OC)c3)cc2NC1=O`, for which the concentration for 50% growth inhibition (GI50) with A549 was determined as 1520 nM; in the test with HCT-116, 2010 nM; with SF-295, 1010 nM; with LOX IMVI, 2550 nM; in the test on 786-0 it was 2400 nM; in test [1] it was 1910 nM.
As for `CCN(CC)C(=O)C[C@H]1C(=O)Nc2cc(NC(=O)c3cc(OC)c(OC)c(OC)c3)c(Oc3cc(C)cc(C)c3)cc2C(=O)N1CC`, the 50% growth inhibitory concentration (GI50) was found to be 148 nM with A549; 145 nM in the test on HCT-116; 118 nM in the test with SF-295; 134 nM in the test on LOX IMVI; 158 nM in the test with 786-0; 69 nM in test [1].
With `CCN(CC)C(=O)C[C@@H]1NC(=O)c2cc(Oc3cc(C)c(Br)c(C)c3)c(NC(=O)c3cc(OC)c(OC)c(OC)c3)cc2NC1=O`, the GI50 with A549 came out at 243 nM; in the test with HCT-116 it was 172 nM; in the test with LOX IMVI, 128 nM; in the test with 786-0, 1000 nM; in test [1], 234 nM.
`COC(=O)C[C@H]1NC(=O)c2cc(Oc3cc(C)cc(C)c3)c(NC(=O)c3cc(OC)c(OC)c(OC)c3)cc2NC1=O`: the GI50 (in the test with A549; in the test with HCT-116; in the test on SF-295; in the test on LOX IMVI; in the test with 786-0; in test [1]) was over 50000 nM in each case.
Consider `COc1cc(C(=O)Nc2cc3c(cc2Oc2cc(C)cc(C)c2)C(=O)N[C@@H](CC(=O)N2CCN(C)CC2)C(=O)N3)cc(OC)c1OC`, for which the concentration for 50% growth inhibition (GI50) in the test with A549 was determined as 180 nM; in the test on HCT-116 it was 140 nM; with SF-295, 670 nM; in the test with LOX IMVI, 90 nM; in the test with 786-0, 1570 nM; in test [1], 1580 nM.
As for `COC(=O)C[C@@H]1NC(=O)c2cc(Oc3ccc(F)cc3)c(NC(=O)c3cc(OC)c(OC)c(OC)c3)cc2NC1=O`, the GI50 (in the test on A549; in the test with HCT-116; in the test with SF-295; in the test with LOX IMVI; in the test with 786-0; in test [1]) was over 50000 nM each time.
As to `COC(=O)C[C@@H]1NC(=O)c2cc(OCc3cc(C)cc(C)c3)c(NC(=O)c3cc(OC)c(OC)c(OC)c3)cc2NC1=O`, the GI50 in the test on A549 is 1810 nM; in the test with HCT-116, 2820 nM; in the test on SF-295 it was 1500 nM; in the test with LOX IMVI, 2990 nM; with 786-0 it was 4780 nM; in test [1], 3020 nM.
As to `CCOC(=O)C1NC(=O)c2cc(Oc3cc(C)cc(C)c3)c(NC(=O)c3cc(OC)c(OC)c(OC)c3)cc2NC1=O` (stereo not drawn), the GI50 (with A549; with HCT-116; in the test with SF-295; in the test on LOX IMVI; in the test on 786-0; in test [1]) was over 50000 nM in each case.
For `CCN(CC)C(=O)C[C@H]1C(=O)Nc2cc(NC(=O)c3cc(OC)c(OC)c(OC)c3Cl)c(Oc3cc(C)cc(C)c3)cc2C(=O)N1C`, the GI50 in the test on A549 was 9 nM; in the test with HCT-116, 13 nM; with SF-295 it was 12 nM; in the test with LOX IMVI, under 5 nM; in the test on 786-0, 10 nM; in test [1] it was 17 nM.
As to `COc1cc(C(=O)Nc2cc3c(cc2Oc2cc(C)cc(C)c2)C(=O)N[C@@H](Cc2ncnn2C)C(=O)N3)cc(OC)c1OC`, the concentration for 50% growth inhibition (GI50) turned out to be 470 nM in the test with A549; 90 nM in the test on HCT-116; 180 nM in the test with SF-295; 70 nM with LOX IMVI; 36000 nM in the test with 786-0; 160 nM in test [1].
With `CCN(CC)C(=O)C[C@H]1C(=O)Nc2cc(NC(=O)c3cc(OC)c(OC)c(OC)c3)c(Oc3cc(C)cc(C)c3)cc2C(=O)N1C`, the concentration for 50% growth inhibition (GI50) turned out to be 17 nM in the test on A549; 21 nM in the test on HCT-116; 10 nM with SF-295; 18 nM in the test with LOX IMVI; 41 nM in the test on 786-0; 23 nM in test [1].
Consider `COC(=O)C[C@@H]1NC(=O)c2cc(Oc3cccc(N(C)C)c3)c(NC(=O)c3cc(OC)c(OC)c(OC)c3)cc2NC1=O`, for which the concentration for 50% growth inhibition (GI50) in the test on A549 was 3410 nM; in the test on HCT-116, 5250 nM; with SF-295 it was 3090 nM; in the test on LOX IMVI, 5260 nM; with 786-0 it was 14900 nM; in test [1], 4680 nM.
As for `CCCCOC(=O)C[C@@H]1NC(=O)c2cc(Oc3cc(C)cc(C)c3)c(NC(=O)c3cc(OC)c(OC)c(OC)c3)cc2NC1=O`, the 50% growth inhibitory concentration (GI50) was 1860 nM in the test with A549; 510 nM with HCT-116; 1910 nM in the test with SF-295; 3980 nM in the test with LOX IMVI; 1910 nM in the test with 786-0.
On to `CCN(CC)C(=O)C[C@@H]1NC(=O)c2cc(Oc3cc(C)c(F)c(C)c3)c(NC(=O)c3cc(OC)c(OC)c(OC)c3Cl)cc2NC1=O`, for which the GI50 in the test on A549 stood at 26 nM; with HCT-116, 17 nM; in the test on SF-295 it was 27 nM; in the test with LOX IMVI it was 8 nM; in the test on 786-0, 61 nM; in test [1], 16 nM.
With `COC(=O)C[C@@H]1NC(=O)c2cc(Oc3cc(Cl)cc(Cl)c3)c(NC(=O)c3cc(OC)c(OC)c(OC)c3)cc2NC1=O`, the GI50 (in the test with A549; in the test on HCT-116; in the test with SF-295; in the test on LOX IMVI; with 786-0; in test [1]) was over 50000 nM in each case.
Turning to `CCN(CC)C(=O)C[C@H]1C(=O)Nc2cc(NC(=O)c3cc(OC)c(OC)c(OC)c3Cl)c(Oc3cc(C)c(F)c(C)c3)cc2C(=O)N1C`, the concentration for 50% growth inhibition (GI50) in the test with A549 is 21 nM; in the test with HCT-116 it was 22 nM; in the test on SF-295, 19 nM; in the test with LOX IMVI, 9 nM; in the test on 786-0, 30 nM; in test [1], 18 nM.
As for `COC(=O)C[C@@H]1NC(=O)c2cc(OCc3ccccc3)c(NC(=O)c3cc(OC)c(OC)c(OC)c3)cc2NC1=O`, the GI50 (in the test on A549; in the test on HCT-116; in the test on SF-295; with LOX IMVI; with 786-0; in test [1]) was over 50000 nM throughout.
Turning to `COc1cc(C(=O)Nc2cc3c(cc2Oc2cc(C)cc(C)c2)C(=O)N[C@@H](CC(=O)O)C(=O)N3)cc(OC)c1OC`, the concentration for 50% growth inhibition (GI50) (with A549; in the test on HCT-116; in the test on SF-295; in the test with LOX IMVI; in the test on 786-0; in test [1]) was over 50000 nM each time.
In the case of `COc1cc(C(=O)Nc2cc3c(cc2Oc2cc(C)cc(C)c2)C(=O)N[C@@H](Cc2nnc(C)o2)C(=O)N3)cc(OC)c1OC`, the GI50 in the test on A549 turned out to be 1380 nM; in the test on HCT-116 it was 1260 nM; with SF-295, 940 nM; in the test on LOX IMVI, 1280 nM; with 786-0, 1420 nM; in test [1], 1580 nM.
On to `CCN(CC)C(=O)C[C@@H]1NC(=O)c2cc(Oc3cc(C)cc(C)c3)c(NC(=O)c3cc(OC)c(OC)c(OC)c3Br)cc2NC1=O`, for which the GI50 with A549 is under 5 nM; in the test on HCT-116, over 5 nM; in the test with SF-295 it was under 5 nM; in the test on LOX IMVI, under 5 nM; in the test with 786-0, 7 nM; in test [1] it was under 5 nM.
Take `COC(=O)C[C@@H]1NC(=O)c2cc(Oc3cc(C)cc(C)c3)c(NC(=O)c3cc(OC)c(OC)c(OC)c3)cc2NC1=O`: the concentration for 50% growth inhibition (GI50) with A549 is 70 nM; in the test with HCT-116, 30 nM; with SF-295 it was 70 nM; in the test on LOX IMVI, 20 nM; in the test on 786-0, 70 nM; in test [1], 50 nM.
Take `COC(=O)CC[C@@H]1NC(=O)c2cc(Oc3cc(C)cc(C)c3)c(NC(=O)c3cc(OC)c(OC)c(OC)c3)cc2NC1=O`: the GI50 in the test with A549 is 1260 nM; in the test with HCT-116 it was 2080 nM; in the test on SF-295 it was 1100 nM; in the test with LOX IMVI, 1920 nM; with 786-0 it was 1860 nM; in test [1], 1200 nM.
For `COc1cc(C(=O)Nc2cc3c(cc2Oc2cc(C)cc(C)c2)C(=O)N[C@@H](CC(=O)N(C)C)C(=O)N3)cc(OC)c1OC`, the concentration for 50% growth inhibition (GI50) in the test on A549 is 140 nM; in the test with HCT-116, 30 nM; in the test on SF-295 it was 110 nM; in the test with LOX IMVI, 20 nM; in test [1], 60 nM.
For `CCN(CC)C(=O)C[C@@H]1NC(=O)c2cc(Oc3cc(C)cc(C)c3)c(NC(=O)c3cc(OC)c(OC)c(OC)c3Cl)cc2NC1=O`, the GI50 with A549 is 17 nM; in the test with HCT-116, under 13 nM; with SF-295 it was 23 nM; in the test on LOX IMVI it was under 5 nM; in the test on 786-0, 40 nM.
As for `CCCCN(CCCC)C(=O)C[C@@H]1NC(=O)c2cc(Oc3cc(C)cc(C)c3)c(NC(=O)c3cc(OC)c(OC)c(OC)c3)cc2NC1=O`, the GI50 is 360 nM in the test on A549; 460 nM with HCT-116; 320 nM with SF-295; 340 nM in the test on LOX IMVI; 360 nM in the test on 786-0.
